Consider three compounds from article PMC12527034, “R103 and R115 Affinity Mutants of ATeam ATP Biosensors” (Sensors (Basel, Switzerland), 2025).

Experiment [1] has as its target T1, ATeam3.10 (WT) (Bacillus sp. PS3, UniProt A0A0M5MQR7).
T1 construct: gene uncC; epsilon subunit flanked by mseCFP and mVenus; polyhistidine-tagged, expressed in E. coli BL21(DE3)
Description: Steady-state FRET ratio ADP dose response of 0.125 uM purified ATeam3.10 sensor at room temperature in 50 mM MOPS-KOH pH 7.3, 50 mM KCl, 0.5 mM MgCl2, 0.05% Triton-X100 (4 to 9 replicates). The format is binding. The following applies: n = 4; read-out: ADP Affinity Kapp. The protocol: (§1) Protein Characterization. […] Samples were measured with n = 4 to 9 replicates.
(§2) Apparent dissociation constants are summarized in (E).

Experiment [2] addresses T2, ATeam3.10 R103E (Bacillus sp. PS3, UniProt A0A0M5MQR7, R103E).
T2 construct: gene uncC; epsilon subunit flanked by mseCFP and mVenus; polyhistidine-tagged
The experiment is described as above. It is filed as binding. The following applies: n = 4. The protocol: as §1, §2

In experiment [3] the target is T3, ATeam3.10 R115E (Bacillus sp. PS3, UniProt A0A0M5MQR7, R115E).
T3 construct: gene uncC; epsilon subunit flanked by mseCFP and mVenus; polyhistidine-tagged
T3 sequence (A0A0M5MQR7 entry or part of it R115E): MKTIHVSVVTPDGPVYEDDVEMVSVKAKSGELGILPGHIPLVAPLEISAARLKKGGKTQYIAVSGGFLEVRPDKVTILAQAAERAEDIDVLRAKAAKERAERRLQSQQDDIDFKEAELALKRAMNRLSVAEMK
The description is as above. As to conditions: n = 4. It is filed as binding. The protocol: as §1, §2

The target in experiment [4] is T4, ATeam3.10 R103A/R115E (Bacillus sp. PS3, UniProt A0A0M5MQR7, R103A/R115E).
T4 construct: gene uncC; epsilon subunit flanked by mseCFP and mVenus; polyhistidine-tagged
T4 sequence (A0A0M5MQR7 entry or part of it R103A/R115E): as the sequence (A0A0M5MQR7 entry or part of it R115E) above, with R103A counted along it
Described as above. It is filed as binding. The following applies: n = 4. The protocol:
as §1, §2

For experiment [5], the target named is T5, ATeam3.10 R103E/R115A (Bacillus sp. PS3, UniProt A0A0M5MQR7, R103E/R115A).
T5 construct: gene uncC; epsilon subunit flanked by mseCFP and mVenus; polyhistidine-tagged
T5 sequence (A0A0M5MQR7 entry or part of it R103E/R115A): as the sequence (A0A0M5MQR7 entry or part of it R115E) above, with R103E, E115A counted along it
The experiment is described as above. The format is binding. The following applies: n = 4. The protocol: as §1, §2

The target of experiment [6] is T6, ATeam3.10 R115A (Bacillus sp. PS3, UniProt A0A0M5MQR7, R115A).
T6 construct: gene uncC; epsilon subunit flanked by mseCFP and mVenus; polyhistidine-tagged
T6 sequence (A0A0M5MQR7 entry or part of it R115A): as the sequence (A0A0M5MQR7 entry or part of it R115E) above, with E115A counted along it
The experiment is described as above. The format is binding. The following applies: n = 4. Here is the method:
as §1, §2

Experiment [7] deals with T7, ATeam3.10 R103A/R115A (Bacillus sp. PS3, UniProt A0A0M5MQR7, R103A/R115A).
T7 construct: gene uncC; epsilon subunit flanked by mseCFP and mVenus; polyhistidine-tagged
T7 sequence (A0A0M5MQR7 entry or part of it R103A/R115A): as the sequence (A0A0M5MQR7 entry or part of it R115E) above, with R103A, E115A counted along it
The experiment is described as above. The following applies: n = 4. The format is binding. The protocol: as §1, §2

Experiment [8] deals with T8, ATeam3.10 R103A (Bacillus sp. PS3, UniProt A0A0M5MQR7, R103A).
T8 construct: gene uncC; epsilon subunit flanked by mseCFP and mVenus; polyhistidine-tagged
T8 sequence (A0A0M5MQR7 entry or part of it R103A): as the sequence (A0A0M5MQR7 entry or part of it R115E) above, with R103A, E115R counted along it
The experiment is described as above. It is filed as binding. The following applies: n = 4. Here is the method:
as §1, §2

Experiment [9] concerns the target T9, ATeam3.10 R103E/R115E (Bacillus sp. PS3, UniProt A0A0M5MQR7, R103E/R115E). Nature of the experiment: biochemical. As to conditions: n = 4. Also noted: gene uncC.
The target of a further experiment is T10, ATeam1.03 (WT) (Bacillus subtilis, UniProt P37812).
T10 construct: gene atpC; epsilon subunit flanked by mseCFP and mVenus; polyhistidine-tagged, expressed in E. coli BL21(DE3)
T10 sequence (P37812 whole entry): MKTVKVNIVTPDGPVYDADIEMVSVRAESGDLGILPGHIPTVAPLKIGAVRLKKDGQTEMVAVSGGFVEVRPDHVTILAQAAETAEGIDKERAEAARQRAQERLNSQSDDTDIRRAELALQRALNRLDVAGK
Nature of the experiment: Steady-state FRET ratio ATP dose response of 0.125 uM purified ATeam1.03 or ATeam1.03YEMK sensor at room temperature in 50 mM MOPS-KOH pH 7.3, 50 mM KCl, 0.5 mM free Mg2+, 0.05% Triton-X100 (4 to 9 replicates). The format is binding. As to conditions: SD, n = 4; read-out: ATP Affinity Kapp (ATeam1.03 and ATeam1.03YEMK). Here is the method: as §1
(§3) Figure 4 All ATeam1.03 R103 and R115 single and double mutants cause loss of ATP affinity. ATP dose responses were measured using purified protein in solution. […] (A) Example fluorescence emission spectra for (A) wildtype ATeam1.03 and (B) the non-binding R103A/R115A double mutant.
(§4) Figure 5 ATeam1.03YEMK R103 and R115 single and double mutants tune ATP affinity. ATP dose responses were measured using purified protein in solution. […] (A) Example fluorescence emission spectra for (A) wildtype ATeam1.03YEMK, (B) the R103A/R115A double mutant, and (C) the R103A/R115E double mutant. ATP dose response curves for (D) single and (E) double mutants. Apparent dissociation constants are summarized in (F).

A further experiment concerns the target T11, ATeam1.03YEMK R115E (Bacillus subtilis, UniProt P37812, G131E/INS132K/K132M/M60Y/R115E).
T11 construct: gene atpC; YEMK epsilon subunit flanked by mseCFP and mVenus; polyhistidine-tagged
The experiment is described as above. It is filed as binding. The following applies: SD, n = 4; read-out: ATP Affinity Kapp (ATeam1.03 and ATeam1.03YEMK). The protocol: as §1, §3, §4

The target of experiment [10] is T12, ATeam1.03YEMK R103E/R115E.
T12 construct: YEMK epsilon subunit flanked by mseCFP and mVenus; polyhistidine-tagged
The experiment is described as above. It is filed as binding. As to conditions: SD, n = 4; read-out: ATP Affinity Kapp (ATeam1.03 and ATeam1.03YEMK). The protocol:
as §1, §3, §4

The next experiment deals with T13, ATeam1.03YEMK (WT) (Bacillus subtilis, UniProt P37812, G131E/INS132K/K132M/M60Y).
T13 construct: gene atpC; epsilon subunit with four interface residues exchanged to match Bacillus sp; PS3, flanked by mseCFP and mVenus; polyhistidine-tagged
T13 sequence (P37812 whole entry, stated change not applied): as the sequence (P37812 whole entry) above
The description is as above. The format is binding. The following applies: SD, n = 4; read-out: ATP Affinity Kapp (ATeam1.03 and ATeam1.03YEMK). Here is the method:
as §1, §3, §4

The target of experiment [11] is T14, ATeam1.03YEMK R103E/R115A.
T14 construct: YEMK epsilon subunit flanked by mseCFP and mVenus; polyhistidine-tagged
The experiment is described as above. It is filed as binding. The following applies: SD, n = 4; read-out: ATP Affinity Kapp (ATeam1.03 and ATeam1.03YEMK). The protocol:
as §1, §3, §4

A further experiment addresses T15, ATeam1.03YEMK R115A (Bacillus subtilis, UniProt P37812, G131E/INS132K/K132M/M60Y/R115A).
T15 construct: gene atpC; YEMK epsilon subunit flanked by mseCFP and mVenus; polyhistidine-tagged
The experiment is described as above. As to conditions: SD, n = 4; read-out: ATP Affinity Kapp (ATeam1.03 and ATeam1.03YEMK). It is filed as binding. Here is the method: as §1, §3, §4

Experiment [12] deals with T16, ATeam1.03YEMK R103A/R115E.
T16 construct: YEMK epsilon subunit flanked by mseCFP and mVenus; polyhistidine-tagged
The description is as above. It is filed as binding. The following applies: SD, n = 4; read-out: ATP Affinity Kapp (ATeam1.03 and ATeam1.03YEMK). The protocol: as §1, §3, §4

For experiment [13], the target named is T9, ATeam3.10 R103E/R115E. Description: Steady-state FRET ratio ATP dose response of 0.125 uM purified ATeam3.10 sensor at room temperature in 50 mM MOPS-KOH pH 7.3, 50 mM KCl, 0.5 mM free Mg2+, 0.05% Triton-X100 (4 to 9 replicates). It is filed as binding. Further details: gene uncC; epsilon subunit flanked by mseCFP and mVenus; polyhistidine-tagged. The following applies: SD, n = 4; read-out: ATP Affinity Kapp. The protocol:
as §1
(§5) We measured the ATP dose–response curves for all combinations of single and double mutants consisting of R-to-A charge neutralization or R-to-E charge reversal (Table 1, Figure 2). […] The difference between our observations likely reflects the sensitivity of the ε subunit to the label used. Kato-Yamada used a relatively small Cy3 label with a cysteine mutant (Q107C) of the ε subunit, whereas the ε subunit is fused to two large fluorescent proteins in ATeam3.10. Despite this difference, the increase in affinity could still be of particular use for developing an ATeam-based sensor to detect the low levels of extracellular ATP [2, 3, 11, 13, 25].
(§6) Figure 2 ATeam3.10 R103 and R115 single and double mutants tune ATP affinity. ATP dose responses were measured using purified protein in solution. […] Apparent dissociation constants are summarized in (E).

Experiment [14] has as its target T1, ATeam3.10 (WT). The description is as above. It is filed as binding. The following applies: SD, n = 4; read-out: ATP Affinity Kapp. The protocol:
as §1, §5, §6

In experiment [15] the target is T2, ATeam3.10 R103E. Described as above. It is filed as binding. The following applies: SD, n = 4; read-out: ATP Affinity Kapp. The protocol:
as §1, §5, §6

Experiment [16] concerns the target T3, ATeam3.10 R115E. The experiment is described as above. As to conditions: SD, n = 4; read-out: ATP Affinity Kapp. It is filed as binding. The protocol: as §1, §5, §6
Experiment [17] concerns the target T4, ATeam3.10 R103A/R115E. The experiment is described as above. It is filed as binding. As to conditions: SD, n = 4; read-out: ATP Affinity Kapp. The protocol: as §1, §5, §6
The target in experiment [18] is T5, ATeam3.10 R103E/R115A. The experiment is described as above. The format is binding. The following applies: SD, n = 4; read-out: ATP Affinity Kapp. Here is the method:
as §1, §5, §6

In experiment [19] the target is T6, ATeam3.10 R115A. The experiment is described as above. The following applies: SD, n = 4; read-out: ATP Affinity Kapp. It is filed as binding. Here is the method: as §1, §5, §6
Experiment [20] concerns the target T7, ATeam3.10 R103A/R115A. The description is as above. As to conditions: SD, n = 4; read-out: ATP Affinity Kapp. It is filed as binding. Here is the method:
as §1, §5, §6

The target of experiment [21] is T8, ATeam3.10 R103A. Described as above. It is filed as binding. As to conditions: SD, n = 4; read-out: ATP Affinity Kapp. Here is the method: as §1, §5, §6
A further experiment concerns HEK293 cells. Description: Live-cell imaging of metabolic inhibition (sensitized FRET emission ratio). The format is cell-based. The protocol:
Microscopy. HEK293 cells were cultured in low-glucose Dulbecco’s modified Eagle’s medium supplemented with 10% cosmic calf serum (Gibco, Thermo Fisher Scientific, Waltham, MA, USA). For imaging studies, cells were plated on 18 mm #1.5 coverslips and transfected with Effectene (Qiagen, Germantown, MD, USA) or by the calcium phosphate method. Prior to imaging, cells were equilibrated for at least 20 min at room temperature in imaging solution (15 mM HEPES, pH 7.3, 1.25 mM NaH2PO4, 130 mM NaCl, 3 mM KCl, 2 mM CaCl2, 1 mM MgCl2, 3 mM NaHCO3) supplemented with a glucose concentration dependent on the specific experiment. Live-cell microscopy was carried out at room temperature on an Olympus IX83 inverted fluorescence microscope with a 20X/0.75 NA air objective illuminated by a Lumencor SpectraX light engine and imaged with an Andor Zyla 4.2 sCMOS camera. An ECFP/EYFP/mCherry multiband beamsplitter (Chroma 69008bs) was used with bandpass excitation and emission filters for each channel: cyan 438/29 nm and 470/24 nm; yellow 510/10 nm and 540/30 nm; sensitized FRET 438/29 nm and 540/30 nm; red 575/25 nm and 631/28 nm. Andor iQ3 software was used for image acquisition, and ImageJ/FIJI was used for image analysis. […] Cell masks were created using a threshold of two times the background and applied to background-subtracted images. […]

T2 sequence (A0A0M5MQR7 entry or part of it R103E): as the sequence (A0A0M5MQR7 entry or part of it R115E) above, with R103E, E115R counted along it
T9 sequence (A0A0M5MQR7 entry or part of it R103E/R115E): as the sequence (A0A0M5MQR7 entry or part of it R115E) above, with R103E counted along it
T1 sequence (A0A0M5MQR7 1-133): as the sequence (A0A0M5MQR7 entry or part of it R115E) above, with E115R counted along it
T11 sequence (P37812 whole entry, stated change not applied): as the sequence (P37812 whole entry) above
T15 sequence (P37812 whole entry, stated change not applied): as the sequence (P37812 whole entry) above

In the case of `Nc1ncnc2c1ncn2[C@@H]1O[C@H](COP(=O)(O)OP(=O)(O)O)[C@@H](O)[C@H]1O` [ADP, Adenosine diphosphate], the Kd at ATeam3.10 (WT) [1] amounted to 130 ± 10 µM; at ATeam3.10 R103E [2] it was 68 ± 3 µM; on ATeam3.10 R115E [3], 29 ± 2 µM; at ATeam3.10 R103A/R115E [4], 17 ± 1 µM; on ATeam3.10 R103E/R115A [5], 40 ± 2 µM; at ATeam3.10 R115A [6], 74 ± 7 µM. Further, the values for the Kd at ATeam3.10 R103A/R115A [7], at ATeam3.10 R103A [8] and on ATeam3.10 R103E/R115E [9] were 32 ± 5 µM, 82 ± 6 µM and 51 ± 6 µM, respectively.
For `Nc1ncnc2c1ncn2[C@@H]1O[C@H](COP(=O)(O)OP(=O)(O)OP(=O)(O)O)[C@@H](O)[C@H]1O` [ATP, Adenosine triphosphate], the Kd at ATeam1.03 (WT) was determined as 1000 µM; at ATeam1.03YEMK R115E, 700 µM; in experiment [10], 2200 µM; at ATeam1.03YEMK (WT) it was 200 µM; in [11], 1900 µM; on ATeam1.03YEMK R115A it was 1800 µM. Moreover, the Kd in [12] was determined as 1900 µM; at ATeam3.10 R103E/R115E [13], 0.8 µM; on ATeam3.10 (WT) [14], 0.8 µM; at ATeam3.10 R103E [15] it was 0.6 µM; at ATeam3.10 R115E [16] it was 0.3 µM; on ATeam3.10 R103A/R115E [17], 0.2 µM. For the same compound, the Kd at ATeam3.10 R103E/R115A [18] came to 0.7 µM; at ATeam3.10 R115A [19], 0.6 µM; on ATeam3.10 R103A/R115A [20] it was 0.2 µM; on ATeam3.10 R103A [21], 0.8 µM.
As for `O=CC[C@@H](O)[C@H](O)[C@H](O)CO` [DG, 2-deoxyglucose], the “effect on cytosolic ATP” value is reported as “did not cause a drastic loss of ATP” in the experiment on HEK293 cells (HEK293, 10 mM glucose) and “did cause ATP depletion” in the experiment with HEK293 cells (HEK293, absence of glucose).
